Measurements as given in patent US11311506B2, “Controlling biofilms with cyclopropanated fatty acids” (THE UNIVERSITY OF MEMPHIS RESEARCH FOUNDATION, priority 2018, dated 2022).

Tests used:
[1] = tested on: Staphylococcus aureus biofilm; assay: Biofilm dispersion measurements (Staphylococcus aureus), Luciferase assay for ATP production; format: cell-based; conditions: 500 μg/mL; preformed 7-day S. aureus biofilm; FIG. 1
Method: Biofilm was formed using Staphylococcus aureus in a 96-well plate format. Each well of the plate was seeded with 150 μL of bacterial culture and incubated for 24 hours to allow for biofilm growth. The medium in each well was changed every 24 hours for 5 days and every 12 hours for two additional days. On day 7, 135 μL of Tryptic Soy Broth (TSB) and 15 μL of C2DA, T2DA, or 2-CP were added to yield final concentrations of each test compound ranging from 0 to 1000 μg/mL. The plate was then incubated for one hour and the turbidity of each solution was determined at 540 nm. Bacterial growths were then aspirated from all wells and the plates were washed several times with water.
(§1) The relative percentage of attached cells as compared to non-treated controls was assessed using a Luciferase assay for ATP production.

[2] = tested on: Staphylococcus aureus biofilm; assay: Biofilm eradication with antibiotics, MBEC Biofilm Inoculator plate, turbidity at 540 nm (Example 3); format: cell-based; conditions: 24 h
Method: Overnight cultures of Staphylococcus aureus were prepared by inoculating 2 mL of TSB followed by incubation overnight at 37° C. The following day, 1 mL of this stock was diluted in 10 mL of TSB. A total of 150 μL of the diluted stock was seeded into each well of a 96-well MBECTM Biofilm Inoculator plate, followed by incubation overnight to allow biofilm growth. All media and planktonic bacteria were then aspirated from each well thus allowing the biofilm to remain both on the bottom of each well and on the pegs on the top of the plate. […] The plates were incubated for 24 hours at 37° C. Following incubation, the pegs were removed and added to new plates containing 150 μL of sterile TSB in each well. Plates and pegs were then sonicated for 5 minutes to remove any viable bacteria attached to the pegs, followed by incubation for 24 hours. Turbidity was determined via absorbance at 540 nm to access bacterial growth in the presence of fixed concentration of antibiotics and varying concentrations of […] and 2-CP. In this assay, the live bacteria that remained attached to the pegs grew overnight and increased turbidity.

[3] = tested on: Mouse fibroblast cells (NIH3T3); assay: Cytocompatibility, CellTiter Glow cell viability; format: cell-based
Method: Mouse fibroblast cells (NIH3T3) were seeded (1×10^4 cells/cm^2) in 24-well plates in Dulbecco's Modified Eagle's Medium (DMEM) supplemented with 10% fetal bovine serum and 100 μg/mL Normocin for 24 hours at 37° C. and 5% CO2. Concentrations of C2DA, T2DA, and 2-CP ranging from 0 to 1000 μg/mL were added to various wells. The plate was incubated for 24 hours and cell viability was measured using CellTiter Glow.

[4] = tested on: Pseudomonas aeruginosa (ATCC 27317) biofilm; assay: Biofilm dispersion measurements (Pseudomonas aeruginosa), Luciferase assay for ATP production; format: cell-based; conditions: 125 or 250 μg/mL, 24 h; FIG. 7
Method: Biofilm was formed using Pseudomonas aeruginosa (ATCC 27317) in a 96-well plate format. Each well of the plate was seeded with 150 μL of bacterial culture and incubated for 24 hours. […] The plate was then incubated for 24 hours and the medium was aspirated and the plate washed several times.
as §1

[5] = tested on: S. aureus (UAMS-1); assay: Synergy checkerboard assay, biofilm inhibition (S. aureus); format: cell-based; conditions: for MIC for antibiotic (combined): combined with 2-CP
Method: (§2) Synergy assays were performed to determine the effects of 2-CP when used in combination with various antimicrobials against gram positive S. aureus and gram negative P. aeruginosa. […] Final antibiotic concentrations varied based on their respective minimum inhibitory concentration for each organism and are given in Table 1. […] Inhibition was defined as a lack of visible growth after a 24 hr incubation period. The fractional inhibitory concentration index (FICI) was used to determine synergistic, additive, or antagonistic responses between the three antibiotics and 2-CP.

[6] = tested on: P. aeruginosa (PA-ATCC 27317); assay: Synergy checkerboard assay, biofilm inhibition (P. aeruginosa); format: cell-based; conditions: for FICI / Interpretation: antibiotic combined with 2-CP; for MIC for antibiotic (combined): combined with 2-CP
Method: as §2

[7] = tested on: Pseudomonas aeruginosa (ATCC 27317) biofilm; assay: Biofilm eradication with antibiotics, MBEC plate (Example 8, P. aeruginosa); format: cell-based; conditions: for FICI / Interpretation: P. aeruginosa eradication, antibiotic combined with 2-CP; for FICI: 4000 μg/mL used for 2-CP alone; for MEC for antibiotic (combined): combined with 2-CP
Method: (§3) Staphylococcus aureus (UAMS1) was grown overnight in TSB by incubation at 37° C. Pseudomonas aeruginosa (ATCC 27317) was grown overnight in a similar manner. S. aureus was diluted 1:10 in TSB and P. aeruginosa was diluted 1:50. Bacterial dilutions were added at a volume of 150 μL into each well of a 96-well MBEC′ Biofilm Inoculator plate, followed by overnight incubation to form the biofilm. The next day the medium from each well was carefully aspirated allowing the biofilm to remain both on the pegs of the top plate and the bottom of the wells. […] These plates were incubated at 37° C. for 24 hours. The next day the peg plates (top plate) were removed and added to new plates containing 150 μL of sterile TSB in each well. Plates were sonicated for 5 minutes to remove the viable bacteria attached to the peg surface and later incubated for 24 hours. Turbidity was measured by reading absorbance at 540 nm for bacterial growth in the presence of fixed concentrations of the antibiotics with varying concentrations of 2-CP and C2DA.

[8] = tested on: Staphylococcus aureus (UAMS1) biofilm; assay: Biofilm eradication with antibiotics, MBEC plate (Example 8, S. aureus); format: cell-based
Method: as §3

[9] = tested on: bacterial growth; conditions: background statement; cited from earlier work
[10] = tested on: biofilm formation; conditions: background statement; cited from earlier work

CCCCCCCC1CC1C(=O)O (stereo not drawn) [2-CP, cis-2-heptylcyclopropanyl-1-carboxylic acid]
ability to disperse biofilm (percentage of dispersed cells) [1]: increased ability to disperse biofilm as compared to its unsaturated fatty acid analog, C2DA | turbidity (absorbance at 540 nm) of bacteria surviving on pegs ([2]; increasing concentration of 2-CP (0-500 μg/mL) with fixed […] tobramycin, FIG. 2): significantly lower | biofilm eradication in combination with tetracycline ([2]; with tetracycline at […], fatty acid 0-500 μg/mL, FIG. 3): eradicated the biofilm at lower concentrations than C2DA | cytocompatibility (percentage of viable cells vs PBS control) ([3]; NIH3T3, 0 to 1000 μg/mL, 24 h, FIG. 4): cytocompatibility equal to C2DA | concentration exhibiting significant cytotoxicity toward mammalian cells ([3]; NIH3T3, 24 h): 1000 µg/mL | ability to disperse biofilm (relative percentage of attached cells) [4]: increased ability to disperse biofilm as compared to T2DA and controls | concentration inhibiting growth ([5]; 2-CP alone): 4 mg/mL | MIC ([5]; Staphylococcus aureus, 24 hr, read-out: MIC for 2-CP (alone)): 4000 µg/mL | MIC for 2-CP (combined) ([5]; combined with Levofloxacin): 500 µg/mL | MIC for 2-CP (combined) ([5]; combined with Tetracycline): 62.5 µg/mL | MIC for 2-CP (combined) ([5]; combined with Tobramycin): 31 µg/mL | concentration inhibiting growth ([6]; 2-CP alone): 4 mg/mL | MIC ([6]; Pseudomonas aeruginosa, ATCC27317, 24 hr, read-out: MIC for 2-CP (alone)): 4000 µg/mL | MIC for 2-CP (combined) ([6]; combined with Levofloxacin): 1000 µg/mL | MIC for 2-CP (combined) ([6]; combined with Tetracycline): 1000 µg/mL | MIC for 2-CP (combined) ([6]; combined with Tobramycin): 31 µg/mL | MEC for 2-CP (alone) ([7]; P. aeruginosa biofilm eradication): >4000 | biofilm eradication by the substance alone ([7]; P. aeruginosa, alone): did not eradicate biofilm at any concentration tested | MEC for 2-CP (combined) ([7]; P. aeruginosa, combined with Levofloxacin): 250 | MEC for 2-CP (combined) ([7]; P. aeruginosa, combined with Tobramycin): 250 | MEC for 2-CP (alone) ([8]; S. aureus biofilm eradication): >4000 | biofilm eradication by the substance alone ([8]; S. aureus, alone): did not eradicate biofilm at any concentration tested | MEC for 2-CP (combined) ([8]; S. aureus, combined with Tetracycline): 125 | MEC for 2-CP (combined) ([8]; S. aureus, combined with Tobramycin): 31.25

CCCCCCC/C=C\C(=O)O [C2DA, cis-2-decenoic acid]
concentration that may inhibit bacterial growth [9]: 500 µg/mL | concentration capable of inhibiting biofilm formation [10]: 125 µg/mL

C[C@H]1COc2c(N3CCN(C)CC3)c(F)cc3c(=O)c(C(=O)O)cn1c23 [Levofloxacin]
MIC for antibiotic (alone) [5]: 1 µg/mL | FICI ([5]; antibiotic combined with 2-CP): 0.4 | MIC for antibiotic (combined) [5]: 0.25 µg/mL | MIC for antibiotic (alone) [6]: 1 µg/mL | FICI [6]: 0.8 | MIC for antibiotic (combined) [6]: 0.5 µg/mL | MEC for antibiotic (alone) ([7]; P. aeruginosa): 0.3 µg/mL | FICI [7]: 0.33 | MEC for antibiotic (combined) ([7]; P. aeruginosa): 0.08 µg/mL

CN(C)[C@@H]1C(O)=C(C(N)=O)C(=O)[C@@]2(O)C(O)=C3C(=O)c4c(O)cccc4[C@@](C)(O)[C@H]3C[C@@H]12 [Tetracycline]
MIC for antibiotic (alone) [5]: 1 µg/mL | MIC for antibiotic (combined) [5]: 0.5 µg/mL | MIC for antibiotic (alone) [6]: 32 µg/mL | FICI [6]: 0.8 | MIC for antibiotic (combined) [6]: 16 µg/mL

NC[C@H]1O[C@H](O[C@H]2[C@H](O)[C@@H](O[C@H]3O[C@H](CO)[C@@H](O)[C@H](N)[C@H]3O)[C@H](N)C[C@@H]2N)[C@H](N)C[C@@H]1O [Tobramycin]
MIC for antibiotic (alone) [5]: 4 µg/mL | FICI ([5]; antibiotic combined with 2-CP): 0.5 | Interpretation ([5]; antibiotic combined with 2-CP): synergistic | MIC for antibiotic (combined) [5]: 2 µg/mL | MIC for antibiotic (alone) [6]: 0.5 µg/mL | FICI [6]: 0.5 | Interpretation [6]: Syner- | Interpretation ([6]; listed as tobramycin): synergistic | MIC for antibiotic (combined) [6]: 0.25 µg/mL | MEC for antibiotic (alone) ([7]; P. aeruginosa): 0.5 µg/mL | Interpretation [7]: Additive | FICI [7]: 0.5625 | Interpretation ([7]; listed as tobramycin): additive | MEC for antibiotic (combined) ([7]; P. aeruginosa): 0.25 µg/mL | MEC for antibiotic (alone) ([8]; S. aureus): 2.5 µg/mL | Interpretation ([8]; S. aureus eradication, antibiotic combined with 2-CP): Additive | FICI ([8]; S. aureus eradication, antibiotic combined with 2-CP, 4000 μg/mL used for 2-CP alone): 0.51 | Interpretation ([8]; S. aureus eradication, antibiotic combined with 2-CP, listed as tobramycin): additive | MEC for antibiotic (combined) ([8]; S. aureus, combined with 2-CP): 1.25 µg/mL
